Data reported in patent US20250051347A1, “BIFUNCTIONAL CHIMERIC HETEROCYCLIC COMPOUND AND USE THEREOF AS ANDROGEN RECEPTOR DEGRADER” (Hinova Pharmaceuticals, Inc., priority 2021, published 2025).

Tests used:
[1] = target: T1, androgen receptor (AR) splicing variant AR-v7 (Homo sapiens, UniProt P10275); test: Degradation activity on androgen receptor splicing variant AR-v7 in 22RV1 cells (ELISA); assay type: cell-based; conditions: AR-v7 degradation in 22RV1 cells, 48 h
T1 construct: The degradation activity of compounds on AR-v7 in 22RV1 cells; host or cells: 22RV1 cells
T1 sequence (P10275 1-644 isoform P10275-3): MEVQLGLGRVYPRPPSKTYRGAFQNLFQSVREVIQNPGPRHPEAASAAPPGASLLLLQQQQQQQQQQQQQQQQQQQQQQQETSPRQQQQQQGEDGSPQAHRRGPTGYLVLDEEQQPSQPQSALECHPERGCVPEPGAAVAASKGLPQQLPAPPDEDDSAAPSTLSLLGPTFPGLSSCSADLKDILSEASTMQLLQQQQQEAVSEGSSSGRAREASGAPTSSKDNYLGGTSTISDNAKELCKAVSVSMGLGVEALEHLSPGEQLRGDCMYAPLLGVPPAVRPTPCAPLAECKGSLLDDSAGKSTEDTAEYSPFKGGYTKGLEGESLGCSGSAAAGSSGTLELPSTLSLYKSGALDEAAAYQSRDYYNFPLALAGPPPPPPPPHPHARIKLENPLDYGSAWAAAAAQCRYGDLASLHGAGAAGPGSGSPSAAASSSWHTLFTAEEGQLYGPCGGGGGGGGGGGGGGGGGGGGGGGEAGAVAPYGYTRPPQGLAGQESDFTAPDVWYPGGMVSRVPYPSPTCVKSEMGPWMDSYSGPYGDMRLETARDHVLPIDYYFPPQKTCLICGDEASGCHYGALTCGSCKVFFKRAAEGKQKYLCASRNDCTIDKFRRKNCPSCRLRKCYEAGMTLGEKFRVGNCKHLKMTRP

[2] = Pharmacokinetics in mice (plasma exposure after oral administration); assay type: in vivo; conditions: ICR mice, oral (i.g.) 3 mg/kg; for AUC(0-inf): mouse, read-out: After oral administration of 3 mg/kg, mouse plasma exposure AUCinf
Experimental: • LC-20AD high performance liquid chromatography (SHIMADZU, Japan) • API4000 triple quadrupole mass spectrometer (Applied Biosystem, USA) • Phenix Winnolin Pharmacokinetic software (Version 6.3, Certara, USA) • High speed freezing centrifuge (Thermo Fisher Scientific) • Analytical balance (Sartorius, SECURA225D-ICN) • ICR mice (Chengdu Dossy Experimental Animals CO., LTD.)
A suitable amount of drug was accurately weighed, and then the medium (5% DMSO, 15% HS-15, 80% DSW) was added to prepare the solution at a concentration of 0.1 mg/ml (i.v.) and 0.3 mg/ml (i.g.).
18 healthy adult ICR mice were divided into two groups (9 mice for i.v. group; 9 mice for i.g. group), and administered by tail vein or by gavage after fasting overnight (free drinking water); using the satellite blood collection method, 3 animals were collected at each time point, and then 0.1 ml of blood obtained at different time points was anticoagulated with EDTA-K2, centrifuged at 4° C. for 5 min to separate the plasma, and stored at −80° C. for detection. The sampling time points after i.v. administration were 5 min, 15 min, 0.5 h, 1 h, 2 h, 4 h, 8 h, 12 h, and 24 h; while the sampling time points for i.g. group were before administration (0 h) as well as 0.5 h, 1 h, 2 h, 4 h, 6 h, 8 h, 12 h, and 24 h after administration. Then, the drug concentration in plasma was determined by LC/MS/MS.

22RV1 cells = conditions: Homo sapiens, 22Rv1, 144 h, read-out: 22RV1 IC50 (nM), 22RV1 cells, 6 days culture, CCK-8, OD 450 nm

| SMILES | DC50 ([1]; class symbols) [µM] | AUC(0-inf) [2] [µg·h/mL] | IC50 (22RV1 cells) [nM] | DC50 ([1]; numeric values) [µM] | After oral administration of 3 mg/kg, mouse plasma exposure AUCinf (μg*h/mL) [2] |
| --- | --- | --- | --- | --- | --- |
| CC(C)(c1ccc(O[C@H]2C[C@H](Nc3ccc4c(c3)C(=O)N(C3CCC(=O)NC3=O)C4=O)C2)cc1)c1ccc(N2CCc3nc(N4CC5(COC5)C4)ncc3C2)cc1 (stereo partly drawn) [Example 195] | < 0.01 | 1 to 5 | 15 | – | – |
| CC(C)(c1ccc(Oc2cnc(-n3ccnn3)cn2)cc1)c1ccc(O[C@H]2C[C@H](Nc3ccc4c(c3)C(=O)N(C3CCC(=O)NC3=O)C4=O)C2)cc1 (stereo partly drawn) [Example 584] | < 0.01 | 1 to 5 | 4 | – | – |
| CN(C)[C@@H]1CCN(c2nccc(COc3ccc(C(C)(C)c4ccc(O[C@H]5C[C@@H](Nc6ccc7c(c6)C(=O)N(C6CCC(=O)NC6=O)C7=O)C5)cc4)cc3)n2)C1 (stereo partly drawn) [Example 456] | < 0.01 | 5 to 30 | 12 | – | – |
| CC(C)(c1ccc(OCc2ccnc(N3CC4(COC4)C3)n2)cc1)c1ccc(O[C@H]2C[C@@H](Nc3cc4c(cc3F)C(=O)N(C3CCC(=O)NC3=O)C4=O)C2)cc1 (stereo partly drawn) [Example 90, 5-(((1s,3s)-3-(4-(2-(4-((2-(2-oxa-6-azaspiro[3.3]heptane-6-yl)pyrimidin-4-yl)methoxy)phenyl)propan-2-yl)phenoxy)cyclobutyl)amino)-2-(2,6-dioxopiperidin-3-yl)-6-fluoroisoindolin-1,3-dione] | 0.011 to 0.1 | 1 to 5 | – | – | – |
| CC(C)(c1ccc(OCc2ccnc(N3CC4(COC4)C3)n2)cc1)c1ccc(OC2CN(Cc3ccc4c(c3)C(=O)N(C3CCC(=O)NC3=O)C4=O)C2)cc1 (stereo not drawn) [Example 148] | 0.101 to 1 | 1 to 5 | – | – | – |
| Cc1nnc(-c2ccc(Oc3ccc(C(C)(C)c4ccc(O[C@H]5C[C@H](Nc6ccc7c(c6)C(=O)N(C6CCC(=O)NC6=O)C7=O)C5)cc4)cc3)nn2)o1 (stereo partly drawn) [Example 330] | 0.011 to 0.1 | 5 to 30 | – | – | – |
| CC(=O)c1nccc(COc2ccc(C(C)(C)c3ccc(OC4CN(c5ccc6c(c5)C(=O)N(C5CCC(=O)NC5=O)C6=O)C4)cc3)cc2)n1 (stereo not drawn) [Example 558] | – | 5 to 30 | – | > 10 | – |
| Cc1nnc(-c2cnc(Oc3ccc(C(C)(C)c4ccc(O[C@H]5C[C@H](Nc6ccc7c(c6)C(=O)N(C6CCC(=O)NC6=O)C7=O)C5)cc4)cc3)nc2)o1 (stereo partly drawn) [Example 475, 2-(2,6-dioxopiperidin-3-yl)-5-(((1r,3r)-3-(4-(2-(4-((5-(5-methyl-1,3,4oxadiazol-2-yl)pyrimidin-2-yl)oxy)phenyl)propan-2-yl)phenoxy)cyclobutyl)amino)isoindolin-1,3-dione] | 0.011 to 0.1 | 5 to 30 | – | – | – |
| Cc1nsc(Oc2ccc(C(C)(C)c3ccc(O[C@H]4C[C@H](Nc5ccc6c(c5)C(=O)N(C5CCC(=O)NC5=O)C6=O)C4)cc3)cc2)n1 (stereo partly drawn) [Example 591, 2-(2,6-dioxopiperidin-3-yl)-5-((1r,3r)-3-(4-(2-(4-((3-methyl-1,2,4-thiadiazol-5-yl)oxy)phenyl)propan-2-yl)phenoxy)cyclobutyl)aminoisoindolin-1,3-dione] | 0.011 to 0.1 | 5 to 30 | – | – | – |
| CC(C)(c1ccc(Oc2ccnc(-n3nccn3)c2)cc1)c1ccc(O[C@H]2C[C@H](Nc3ccc4c(c3)C(=O)N(C3CCC(=O)NC3=O)C4=O)C2)cc1 (stereo partly drawn) [Example 164] | 0.011 to 0.1 | 5 to 30 | – | – | – |
| O=C1CCC(N2C(=O)c3ccc(N[C@H]4C[C@H](Oc5ccc(Cc6ccc(Oc7cnc(-n8ccnn8)nc7)cc6)cc5)C4)cc3C2=O)C(=O)N1 (stereo partly drawn) [Example 521] | 0.011 to 0.1 | 5 to 30 | – | – | – |
| CC(C)(c1ccc(OCc2ccnc(N3CC4(COC4)C3)n2)cc1)c1ccc(C(=O)Nc2ccc3c(c2)C(=O)N(C2CCC(=O)NC2=O)C3=O)cc1 (stereo not drawn) [Example 504, 4-(2-(4-((2-(2-oxa-6-azaspiro[3.3]heptan-6-yl)pyrimidin-4-yl)methoxy)phenyl)propan-2-yl)-N-(2-(2,6-dioxopiperidin-3-yl)-1,3-dioxoisoindolin-5-yl)benzamide] | 0.101 to 1 | 0.1 to 1 | – | – | – |
| Cc1noc(-c2ccc(Oc3ccc(C(C)(C)c4ccc(O[C@H]5C[C@H](Nc6ccc7c(c6)C(=O)N(C6CCC(=O)NC6=O)C7=O)C5)cc4)cc3)cn2)n1 (stereo partly drawn) [Example 582] | 0.011 to 0.1 | 1 to 5 | – | – | – |
| CC(C)(c1ccc(OCc2ccnc(-n3cc(F)cn3)n2)cc1)c1ccc(O[C@H]2C[C@@H](Nc3ccc4c(c3)C(=O)N(C3CCC(=O)NC3=O)C4=O)C2)cc1 (stereo partly drawn) [Example 460] | 0.011 to 0.1 | 0.1 to 1 | – | – | – |
| CC(C)(c1ccc(OCc2ccnc(O[C@@H]3CCNC3)n2)cc1)c1ccc(O[C@H]2C[C@@H](Nc3ccc4c(c3)C(=O)N(C3CCC(=O)NC3=O)C4=O)C2)cc1 (stereo partly drawn) [Example 242] | 0.011 to 0.1 | 0.1 to 1 | – | – | – |
| Cc1nc(-c2cnc(Oc3ccc(C(C)(C)c4ccc(O[C@H]5C[C@@H](Nc6ccc7c(c6)C(=O)N(C6CCC(=O)NC6=O)C7=O)C5)cc4)cc3)cn2)no1 (stereo partly drawn) [Example 598, 2-(2,6-dioxopiperidin-3-yl)-5-(((1s,3s)-3-(4-(2-(4-((5-(5-methyl-1,2,4-oxadiazol-3-yl)pyrazin-2-yl)oxy)phenyl)propan-2-yl)phenoxy)cyclobutyl)amino)isoindolin-1,3-dione] | 0.011 to 0.1 | 5 to 30 | – | – | – |
| Cc1noc(-c2cccc(COc3ccc(C(C)(C)c4ccc(O[C@H]5C[C@H](Nc6ccc7c(c6)C(=O)N(C6CCC(=O)NC6=O)C7=O)C5)cc4)cc3)n2)n1 (stereo partly drawn) [Example 282] | 0.011 to 0.1 | 1 to 5 | – | – | – |
| CC(O)c1ncc(Oc2ccc(C(C)(C)c3ccc(O[C@H]4C[C@H](Nc5ccc6c(c5)C(=O)N(C5CCC(=O)NC5=O)C6=O)C4)cc3)cc2)cn1 (stereo partly drawn) [Example 118] | – | – | 3 | – | A (30-5 μg*h/mL) |
| Cc1nnc(-c2ccc(Oc3ccc(C(C)(C)c4ccc(O[C@H]5C[C@H](Nc6ccc7c(c6)C(=O)N(C6CCC(=O)NC6=O)C7=O)C5)cc4)cc3)cc2)o1 (stereo partly drawn) [Example 322, 2-(2,6-dioxopiperidin-3-yl)-5-((1r,3r)-3-(4-(2-(4-(4-(5-methyl-1,3,4-oxadiazol-2-yl)phenoxy)phenyl)propan-2-yl)phenoxy)cyclobutyl)aminoisoindolin-1,3-dione] | < 0.01 | 5 to 30 | – | – | – |
| Cc1nnc(-c2nnc(Oc3ccc(C(C)(C)c4ccc(O[C@H]5C[C@H](Nc6ccc7c(c6)C(=O)N(C6CCC(=O)NC6=O)C7=O)C5)cc4)cc3)s2)o1 (stereo partly drawn) [Example 593] | 0.011 to 0.1 | 5 to 30 | – | – | – |
| Cc1nnc(-c2ccnc(Oc3ccc(C(C)(C)c4ccc(O[C@H]5C[C@H](Nc6ccc7c(c6)C(=O)N(C6CCC(=O)NC6=O)C7=O)C5)cc4)cc3)n2)o1 (stereo partly drawn) [Example 171] | 0.011 to 0.1 | 5 to 30 | – | – | – |
| Cc1nc(-c2cncc(Oc3ccc(C(C)(C)c4ccc(O[C@H]5C[C@@H](Nc6ccc7c(c6)C(=O)N(C6CCC(=O)NC6=O)C7=O)C5)cc4)cc3)n2)no1 (stereo partly drawn) [Example 599] | 0.011 to 0.1 | 5 to 30 | – | – | – |
| CC(C)(c1ccc(OCc2cccc(-n3ccnn3)n2)cc1)c1ccc(O[C@H]2C[C@H](Nc3ccc4c(c3)C(=O)N(C3CCC(=O)NC3=O)C4=O)C2)cc1 (stereo partly drawn) [Example 415] | 0.011 to 0.1 | 5 to 30 | – | – | – |
| O=C1CCC(N2C(=O)c3ccc(N[C@H]4C[C@H](Oc5ccc(Oc6ccc(Oc7ncc(-n8nccn8)cn7)cc6)cc5)C4)cc3C2=O)C(=O)N1 (stereo partly drawn) [Example 122, 5-(((trans)-3-(4-(4-((5-(2H-1,2,3-triazol-2-yl)pyrimidin-2-yl)oxy)phenoxy)phenoxy)cyclobutyl)amino)-2-(2,6-dioxopiperidin-3-yl)isoindolin-1,3-dione] | 0.011 to 0.1 | 5 to 30 | – | – | – |
